In ChEMBL document CHEMBL2202954, “The effect of PLC-γ2 inhibitors on the growth of human tumour cells” (2012):

Tested on: MOLT-4
Assay: Cytotoxicity against human MOLT4 cells by SRB assay
Format: functional

SMILES | GI50 | TGI
Nc1c(C(=O)Nc2ccccc2)sc2nc3c(cc12)C(=O)CCC3 | 0.52 µM | > 100 µM
Cc1ccc(Cl)cc1NC(=O)c1sc2nc3c(cc2c1N)C(=O)CCC3 | 3.5 µM | > 100 µM
Nc1c(C(=O)Nc2cccc(Cl)c2)sc2nc3c(cc12)C(=O)CCC3 | 0.2 µM | > 100 µM
Cc1cc(C)c(NC(=O)c2sc3nc4c(cc3c2N)C(=O)CCC4)c(C)c1 | 3.6 µM | > 100 µM
Cc1ccccc1NC(=O)c1sc2nc3c(cc2c1N)C(=O)CCC3 | 4.3 µM | > 100 µM
Nc1c(C(=O)Nc2ccccc2F)sc2nc3c(cc12)C(=O)CCC3 | 1.8 µM | > 100 µM
